The record followed here is article PMC7864676 (Journal of pharmacological sciences, 2018).

Data set [1] addresses T1, human organic anion transporter-3 (hOAT3) (Homo sapiens, UniProt Q8TCC7).
T1 sequence (Q8TCC7 1-542): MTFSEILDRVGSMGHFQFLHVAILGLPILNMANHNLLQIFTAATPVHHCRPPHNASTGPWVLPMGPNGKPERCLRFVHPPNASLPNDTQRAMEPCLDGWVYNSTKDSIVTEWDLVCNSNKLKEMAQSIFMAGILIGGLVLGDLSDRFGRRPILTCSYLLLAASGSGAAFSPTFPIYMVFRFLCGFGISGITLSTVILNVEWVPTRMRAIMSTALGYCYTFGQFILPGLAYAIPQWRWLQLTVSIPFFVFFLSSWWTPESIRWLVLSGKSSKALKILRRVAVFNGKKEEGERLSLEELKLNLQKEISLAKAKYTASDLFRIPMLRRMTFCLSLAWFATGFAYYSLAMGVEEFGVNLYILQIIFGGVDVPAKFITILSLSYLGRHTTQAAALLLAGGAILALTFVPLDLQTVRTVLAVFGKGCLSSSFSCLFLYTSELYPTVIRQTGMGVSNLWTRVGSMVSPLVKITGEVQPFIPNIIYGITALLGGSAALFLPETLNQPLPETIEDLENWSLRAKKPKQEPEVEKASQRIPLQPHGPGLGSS
Nature of the data set: cis-inhibition of [3H]-estrone sulfate uptake in hOAT3-expressing HEK293 cells. It is filed as cell-based.

Substrate in data set [2]: C[C@]12CC[C@@H]3c4ccc(OS(=O)(=O)O)cc4CC[C@H]3[C@@H]1CCC2=O
Nature of the data set: cells, lysate or membranes.

The molecule `C[C@@H]1C[C@H]2[C@@H]3CCC4=CC(=O)C=C[C@]4(C)[C@@]3(F)[C@@H](O)C[C@]2(C)[C@@]1(O)C(=O)CO` [dexamethasone] registered a Ki in data set [1] of 47.1 µM. This lies in the double-digit micromolar range.

B1: human organic anion transporter-3 (hOAT3) (Homo sapiens) (protein)
chain: T1 sequence (Q8TCC7 1-542)
As to B1, the Km in data set [2] was 5.07 ± 0.49 µM.
